Measured values taken from patent US8691753B2 (priority 2009, dated 2014).
Where two headings read alike, the source gives them in different places.

How the values were obtained:
Assay type in all cases: biochemical
MMP-14h = MMP-14h (Homo sapiens (Human), UniProt P50281); assay: Inhibition constant (Ki) on MMP-14h; settings: human MMP-14
Text: (§1) The inhibition constant Ki of these compounds has been determined according to the protocol described by Devel et al, 2006, J. Biol. Chem. (7).
(§2) In this table I and also in table II below, “h” corresponds to human. All of the compounds have therefore been evaluated on human MMPs.

MMP-2h = MMP-2h (Homo sapiens (Human), UniProt P08253); assay: Inhibition constant (Ki) on MMP-2h; settings: human MMP-2
Text: as §1, §2

MMP-10h = MMP-10h (Homo sapiens (Human), UniProt P09238); assay: Inhibition constant (Ki) on MMP-10h; settings: human MMP-10
MMP-9h = MMP-9h (Homo sapiens (Human), UniProt P14780); assay: Inhibition constant (Ki) on MMP-9h; settings: human MMP-9
Text: as §1, §2

MMP-3h = MMP-3h (Homo sapiens (Human), UniProt P08254); assay: Inhibition constant (Ki) on MMP-3h; settings: human MMP-3
Text: as §1, §2

MMP-8h = MMP-8h (Homo sapiens (Human), UniProt P22894); assay: Inhibition constant (Ki) on MMP-8h; settings: human MMP-8
MMP-12h = MMP-12h (Homo sapiens (Human), UniProt P39900); assay: Inhibition constant (Ki) on MMP-12h; settings: human MMP-12
MMP-13h = MMP-13h (Homo sapiens (Human), UniProt P45452); assay: Inhibition constant (Ki) on MMP-13h; settings: human MMP-13
Text: as §1, §2

MMP-9h, sequence (P14780 94-707): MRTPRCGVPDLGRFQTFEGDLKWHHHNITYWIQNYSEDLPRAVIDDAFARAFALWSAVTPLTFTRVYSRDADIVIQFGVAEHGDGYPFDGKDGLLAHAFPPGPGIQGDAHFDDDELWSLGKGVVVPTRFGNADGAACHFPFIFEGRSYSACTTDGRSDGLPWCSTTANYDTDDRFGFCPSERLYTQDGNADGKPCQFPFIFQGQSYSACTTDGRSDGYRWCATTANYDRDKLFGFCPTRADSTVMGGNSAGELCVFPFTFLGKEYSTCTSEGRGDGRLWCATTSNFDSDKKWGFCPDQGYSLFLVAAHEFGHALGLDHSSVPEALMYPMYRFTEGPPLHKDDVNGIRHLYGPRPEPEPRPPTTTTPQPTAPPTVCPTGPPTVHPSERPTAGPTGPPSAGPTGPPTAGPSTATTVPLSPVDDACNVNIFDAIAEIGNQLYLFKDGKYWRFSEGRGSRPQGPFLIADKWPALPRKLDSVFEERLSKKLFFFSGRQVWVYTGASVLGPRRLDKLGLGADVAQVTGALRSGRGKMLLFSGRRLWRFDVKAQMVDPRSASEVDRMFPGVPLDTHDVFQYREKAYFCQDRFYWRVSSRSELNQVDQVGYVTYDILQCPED
MMP-8h, sequence (P22894 101-467): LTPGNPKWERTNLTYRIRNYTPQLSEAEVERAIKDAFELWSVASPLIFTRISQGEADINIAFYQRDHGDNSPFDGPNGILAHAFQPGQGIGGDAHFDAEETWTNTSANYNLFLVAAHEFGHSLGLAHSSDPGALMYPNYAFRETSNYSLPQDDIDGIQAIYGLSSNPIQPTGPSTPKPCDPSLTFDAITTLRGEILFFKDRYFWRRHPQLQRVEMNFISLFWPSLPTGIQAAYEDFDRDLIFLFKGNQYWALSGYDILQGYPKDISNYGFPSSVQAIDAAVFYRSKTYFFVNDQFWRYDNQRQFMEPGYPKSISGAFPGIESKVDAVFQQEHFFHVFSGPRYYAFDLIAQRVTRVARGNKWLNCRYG
MMP-2h, sequence (P08253 110-660): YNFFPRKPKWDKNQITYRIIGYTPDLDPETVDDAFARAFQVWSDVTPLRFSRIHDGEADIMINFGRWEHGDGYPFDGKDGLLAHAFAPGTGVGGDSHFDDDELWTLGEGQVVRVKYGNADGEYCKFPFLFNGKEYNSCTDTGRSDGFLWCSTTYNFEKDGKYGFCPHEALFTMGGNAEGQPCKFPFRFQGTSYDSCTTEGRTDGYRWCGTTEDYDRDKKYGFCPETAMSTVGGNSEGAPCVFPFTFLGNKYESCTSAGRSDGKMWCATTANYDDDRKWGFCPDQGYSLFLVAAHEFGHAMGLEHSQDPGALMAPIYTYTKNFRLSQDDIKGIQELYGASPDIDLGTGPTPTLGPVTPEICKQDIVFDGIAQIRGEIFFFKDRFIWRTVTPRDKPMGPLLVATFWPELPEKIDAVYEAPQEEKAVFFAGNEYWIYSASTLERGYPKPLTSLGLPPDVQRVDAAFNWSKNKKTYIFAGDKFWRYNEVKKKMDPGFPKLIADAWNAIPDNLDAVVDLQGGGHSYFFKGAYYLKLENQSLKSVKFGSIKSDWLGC
MMP-12h, sequence (P39900 106-470): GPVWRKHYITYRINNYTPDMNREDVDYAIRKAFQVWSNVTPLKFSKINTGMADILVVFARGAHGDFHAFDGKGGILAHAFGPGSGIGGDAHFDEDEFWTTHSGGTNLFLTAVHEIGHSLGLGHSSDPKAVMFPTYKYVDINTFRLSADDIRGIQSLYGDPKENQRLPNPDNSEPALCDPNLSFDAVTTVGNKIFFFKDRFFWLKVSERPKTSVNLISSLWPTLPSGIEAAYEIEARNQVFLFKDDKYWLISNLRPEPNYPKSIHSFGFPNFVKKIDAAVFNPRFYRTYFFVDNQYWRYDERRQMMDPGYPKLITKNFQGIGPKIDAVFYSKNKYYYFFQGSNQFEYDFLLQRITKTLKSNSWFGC
MMP-3h, sequence (P08254 100-477): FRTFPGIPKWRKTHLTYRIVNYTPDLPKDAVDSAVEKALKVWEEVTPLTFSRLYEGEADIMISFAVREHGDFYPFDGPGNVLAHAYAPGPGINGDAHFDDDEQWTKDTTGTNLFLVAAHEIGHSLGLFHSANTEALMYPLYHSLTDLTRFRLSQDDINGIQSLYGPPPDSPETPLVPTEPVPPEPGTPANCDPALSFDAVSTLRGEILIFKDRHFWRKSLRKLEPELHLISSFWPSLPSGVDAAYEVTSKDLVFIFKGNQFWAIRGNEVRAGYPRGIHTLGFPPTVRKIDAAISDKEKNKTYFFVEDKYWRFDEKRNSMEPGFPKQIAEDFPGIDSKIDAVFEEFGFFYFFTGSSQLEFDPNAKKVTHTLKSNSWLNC
MMP-10h, sequence (P09238 99-476): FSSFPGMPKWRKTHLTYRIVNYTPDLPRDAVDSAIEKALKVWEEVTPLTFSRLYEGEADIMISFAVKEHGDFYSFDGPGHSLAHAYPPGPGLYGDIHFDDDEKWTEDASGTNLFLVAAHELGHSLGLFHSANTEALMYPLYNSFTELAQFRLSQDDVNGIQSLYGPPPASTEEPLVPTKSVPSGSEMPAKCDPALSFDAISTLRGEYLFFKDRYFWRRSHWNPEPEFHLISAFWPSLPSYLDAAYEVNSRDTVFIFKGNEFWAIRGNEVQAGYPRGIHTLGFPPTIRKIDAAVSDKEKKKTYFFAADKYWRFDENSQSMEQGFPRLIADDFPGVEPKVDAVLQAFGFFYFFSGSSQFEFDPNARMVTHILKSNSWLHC

Row | Structure (SMILES) | Ki (MMP-14h; read-out: Ki MMP-14h) [nM] | Ki (MMP-2h; read-out: Ki MMP-2h) [nM] | Ki (MMP-10h; read-out: Ki MMP-10h) [nM] | Ki (MMP-9h; read-out: Ki MMP-9h) [nM] | Ki (MMP-3h; read-out: Ki MMP-3h) [nM] | Ki (MMP-8h; read-out: Ki MMP-8h) [nM] | Ki (MMP-12h; read-out: Ki MMP-12h) [nM] | Ki (MMP-13h; read-out: Ki MMP-13h) [nM] | Ki (MMP-14h) [nM] | Ki (MMP-2h) [nM] | Ki (MMP-10h) [nM] | Ki (MMP-9h) [nM] | Ki (MMP-3h) [nM] | Ki (MMP-8h) [nM] | Ki (MMP-12h) [nM] | Ki (MMP-13h) [nM]
1 | NC(=O)[C@H](CCC(=O)O)NC(=O)CCc1cc(-c2ccccc2)no1 [Compound 15, (S)-5-amino-5-oxo-4-(3-(3-phenylisoxazol-5-yl)propanamido)pentanoic acid] | > 1000 | 762 | > 5000 | > 1000 | > 10000 | 114 | 398 | > 1000 |  |  |  |  |  |  |  | 
2 | NC(=O)CC[C@H](NC(=O)[C@H](CCC(=O)O)NC(=O)CCc1ccc(-c2ccc(-c3ccccc3)cc2)cc1)C(N)=O [Compound 62, (S)-5-((S)-1,5-diamino-1,5-dioxopentan-2-ylamino)-4-(3-(4′-phenylbiphenyl-4-yl)propanamido)-5-oxopentanoic acid] | > 1000 | 45 | 102 | > 1000 | 244 | 452 | 5.2 | 20 |  |  |  |  |  |  |  | 
3 | O=C(O)CC[C@H](NC(=O)CCc1ccc(-c2ccccc2)cc1)C(=O)N1CCC[C@@H](CC(=O)O)C1 [Compound 51, (S)-4-(3-(biphenyl-4-yl)propanamido)-5-((S)-3-(carboxymethyl)piperidin-1-yl)-5-oxopentanoic acid] | > 5000 | > 1000 | > 10000 | > 1000 | > 10000 | 929 | 259 | > 1000 |  |  |  |  |  |  |  | 
4 | NC(=O)[C@H](CC(=O)O)NC(=O)[C@H](CCC(=O)O)NC(=O)CCc1ccc(-c2ccccc2)cc1 [Compound 45, (S)-5-((S)-1-amino-3-carboxy-1-oxopropan-2-ylamino)-4-(3-(biphenyl-4-yl)propanamido)-5-oxopentanoic acid] | > 5000 | 896 | > 1000 | > 1000 | > 5000 | 233 | 37 | > 1000 |  |  |  |  |  |  |  | 
5 | O=C(O)CC[C@H](NC(=O)CCc1ccc(-c2ccc(-c3ccccc3)cc2)cc1)C(=O)Nc1cccc(CC(=O)O)c1 [Compound 71, (S)-5-(3-(carboxymethyl)phenylamino)-4-(3-(4′-phenylbiphenyl-4-yl)propanamido)-5-oxopentanoic acid] | 696 | 18.1 | 7.7 | 645 | 34 | 99 | 1.05 | 10.2 |  |  |  |  |  |  |  | 
6 | NC(=O)[C@H](CO)NC(=O)[C@H](CCC(=O)O)NC(=O)CCc1ccc(-c2cccs2)cc1 [Compound 87, (S)-5-((S)-1-amino-3-hydroxy-1-oxopropan-2-ylamino)-5-oxo-4-(3-(4-(thiophen-2-yl)phenyl)propanamido)pentanoic acid] | > 1000 | 147 | 742 | > 1000 | > 10000 | 47 | 16.4 | > 1000 |  |  |  |  |  |  |  | 
7 | NC(=O)[C@H](CC(=O)O)NC(=O)[C@H](CC(=O)O)NC(=O)CCc1cc(-c2ccc(-c3ccccc3)cc2)no1 [Compound 19, (S)-4-amino-3-((S)-2-(3-(3-(biphenyl-4-yl)isoxazol-5-yl)propanamido)-3-carboxypropanamido)-4-oxobutanoic acid] | > 1000 | 52 | 527 | > 1000 | 750 | > 1000 | 54 | 24 |  |  |  |  |  |  |  | 
8 | NCCCC[C@H](NC(=O)[C@H](CCC(=O)O)NC(=O)CCc1ccc(-c2cccs2)cc1)C(N)=O [Compound 82, (S)-5-((S)-1,6-diamino-1-oxohexan-2-ylamino)-5-oxo-4-(3-(4-(thiophen-2-yl)phenyl)propanamido)pentanoic acid] | > 1000 | 234 | > 1000 | > 1000 | > 10000 | 73 | 44 | > 1000 |  |  |  |  |  |  |  | 
9 | NCCCC[C@H](NC(=O)CCc1ccc(-c2ccc(-c3ccccc3)cc2)cc1)C(=O)N[C@@H](CCC(=O)O)C(N)=O [Compound 73, (S)-5-amino-4-((S)-6-amino-2-(3-(4′-phenylbiphenyl-4-yl)propanamido)hexanamido)-5-oxopentanoic acid] | > 10000 | 541 | > 1000 | > 10000 | 300 | > 1000 | 254 | 97 |  |  |  |  |  |  |  | 
10 | NC(=O)CC[C@H](NC(=O)[C@H](CCC(=O)O)NC(=O)CCc1ccc(-c2cccs2)cc1)C(N)=O [Compound 81, (S)-5-((S)-1,5-diamino-1,5-dioxopentan-2-ylamino)-5-oxo-4-(3-(4-(thiophen-2-yl)phenyl)propanamido)pentanoic acid] | > 1000 | 204 | 651 | > 1000 | > 10000 | 48 | 18.6 | 801 |  |  |  |  |  |  |  | 
11 | Cc1csc(-c2ccc(CCC(=O)N[C@@H](CCC(=O)O)C(=O)N[C@@H](CCC(=O)O)C(N)=O)cc2)c1 [Compound 94, (S)-5-amino-4-((S)-4-carboxy-2-(3-(4-(4-methylthiophen-2-yl)phenyl)propanamido)butanamido)-5-oxopentanoic acid] | > 10000 | 868 | > 1000 | > 1000 | > 1000 | 233 | 22 | > 1000 |  |  |  |  |  |  |  | 
12 | NC(=O)[C@H](CCC(=O)O)NC(=O)[C@H](Cc1cnc[nH]1)NC(=O)CCc1ccc(-c2cc(-c3ccccc3)cs2)cc1 [Compound 104, (S)-4-((S)-3-(1H-imidazol-5-yl)-2-(3-(4-(4-phenylthiophen-2-yl)phenyl)propanamido)propanamido)-5-amino-5-oxopentanoic acid] | > 5000 | > 5000 | > 5000 | > 5000 | > 10000 | > 1000 | 40 | > 1000 |  |  |  |  |  |  |  | 
13 | NC(=O)CC[C@H](NC(=O)[C@H](CCC(N)=O)NC(=O)CCc1cc(-c2ccc(-c3ccccc3)cc2)no1)C(N)=O [Compound 22, (S)-2-(3-(3-(biphenyl-4-yl)isoxazol-5-yl)propanamido)-N^1-((S)-1,5-diamino-1,5-dioxopentan-2-yl)pentanediamide] | > 10000 | > 1000 | > 10000 | > 1000 | > 10000 | > 1000 | 830 | 436 |  |  |  |  |  |  |  | 
14 | NC(=O)[C@H](CC(=O)O)NC(=O)[C@H](CC(=O)O)NC(=O)CCc1cc(-c2ccc(-c3cccc(Cl)c3)cc2)no1 [Compound 10, (S)-4-amino-3-((S)-3-carboxy-2-(3-(3-(3′-chlorobiphenyl-4-yl)isoxazol-5-yl)propanamido)propanamido)-4-oxobutanoic acid] | > 1000 | 86 | 93 | > 1000 | 85 | 649 | 59 | 18 |  |  |  |  |  |  |  | 
15 | NC(=O)[C@H](CC(=O)O)NC(=O)[C@H](CCC(=O)O)NC(=O)CCc1cc(-c2ccc(-c3cccc(Cl)c3)cc2)no1 [Compound 8, (S)-5-((S)-1-amino-3-carboxy-1-oxopropan-2-ylamino)-4-(3-(3-(3′-chlorobiphenyl-4-yl)isoxazol-5-yl)propanamido)-5-oxopentanoic acid] | > 1000 | 112 | 35 | > 1000 | 243 | 556 | 11 | 30 |  |  |  |  |  |  |  | 
16 | CC(C)C[C@H](NC(=O)CCc1ccc(-c2ccc(-c3ccccc3)cc2)cc1)C(=O)N[C@@H](CCC(=O)O)C(N)=O [Compound 79, (S)-5-amino-4-((S)-4-methyl-2-(3-(4′-phenylbiphenyl-4-yl)propanamido)pentanamido)-5-oxopentanoic acid] | > 10000 | > 1000 | > 1000 | > 100000 | 203 | > 1000 | > 1000 | 443 |  |  |  |  |  |  |  | 
17 | NC(=O)[C@H](CCC(=O)O)NC(=O)[C@H](CC(=O)O)NC(=O)CCc1cc(-c2ccc(-c3ccccc3)cc2)no1 [Compound 17, (S)-5-amino-4-((S)-2-(3-(3-(biphenyl-4-yl)isoxazl-5-yl)propanamido)-3-carboxypropanamido)-5-oxopentanoic acid] | > 5000 | 65 | > 1000 | > 1000 | 699 | > 1000 | 53 | 36 |  |  |  |  |  |  |  | 
18 | NC(=O)[C@H](CCC(=O)O)NC(=O)[C@H](CCCC(=O)O)NC(=O)CCc1cc(-c2ccc(-c3cccc(Cl)c3)cc2)no1 [Compound 11, (S)-6-((S)-1-amino-4-carboxy-1-oxobutan-2-ylamino)-5-(3-(3-(3′-chlorobiphenyl-4-yl)isoxazol-5-yl)propanamido)-6-oxohexanoic acid] |  |  |  |  |  |  |  |  | > 10000 | > 1000 | 556 | > 10000 | 302 | > 1000 | 254 | 191
